Experimental findings from ChEMBL document CHEMBL5154721, “Discovery of HDAC6-Selective Inhibitor NN-390 with in Vitro Efficacy in Group 3 Medulloblastoma” (J Med Chem, 2022) are described below.

Calls of active or inactive are those of the source. The rule behind the calls is not given here.

A short description of data set [1]: Cytotoxicity against human fetal neuronal stem cells assessed as inhibition of cell growth incubated for 72 hrs measured by spectrophotometer analysis. The data set is classed as toxicity, cell-based, NSC.
In data set [2] the test system is MV4-11. The data set is described as follows: Induction of apoptosis in human MV4-11 cells assessed as early apoptotic cells at 1 uM after 24 hrs by Annexin V/PI staining based flow cytometric analysis (Rvb=2%). The class given is functional.
For data set [3], the system named is MV4-11. The data set can be described thus: cells. The class given is functional, cell-based. As to conditions: Homo sapiens, MV4-11, 72 h.
Data set [4] is described as follows: Lipophilicity, logP of the compound. The data set is classed as physicochemical. As to conditions: octanol/water.
Data set [5] concerns the target T1, Protein deacetylase HDAC6 (Homo sapiens) (UniProt Q9UBN7).
T1 sequence (whole entry): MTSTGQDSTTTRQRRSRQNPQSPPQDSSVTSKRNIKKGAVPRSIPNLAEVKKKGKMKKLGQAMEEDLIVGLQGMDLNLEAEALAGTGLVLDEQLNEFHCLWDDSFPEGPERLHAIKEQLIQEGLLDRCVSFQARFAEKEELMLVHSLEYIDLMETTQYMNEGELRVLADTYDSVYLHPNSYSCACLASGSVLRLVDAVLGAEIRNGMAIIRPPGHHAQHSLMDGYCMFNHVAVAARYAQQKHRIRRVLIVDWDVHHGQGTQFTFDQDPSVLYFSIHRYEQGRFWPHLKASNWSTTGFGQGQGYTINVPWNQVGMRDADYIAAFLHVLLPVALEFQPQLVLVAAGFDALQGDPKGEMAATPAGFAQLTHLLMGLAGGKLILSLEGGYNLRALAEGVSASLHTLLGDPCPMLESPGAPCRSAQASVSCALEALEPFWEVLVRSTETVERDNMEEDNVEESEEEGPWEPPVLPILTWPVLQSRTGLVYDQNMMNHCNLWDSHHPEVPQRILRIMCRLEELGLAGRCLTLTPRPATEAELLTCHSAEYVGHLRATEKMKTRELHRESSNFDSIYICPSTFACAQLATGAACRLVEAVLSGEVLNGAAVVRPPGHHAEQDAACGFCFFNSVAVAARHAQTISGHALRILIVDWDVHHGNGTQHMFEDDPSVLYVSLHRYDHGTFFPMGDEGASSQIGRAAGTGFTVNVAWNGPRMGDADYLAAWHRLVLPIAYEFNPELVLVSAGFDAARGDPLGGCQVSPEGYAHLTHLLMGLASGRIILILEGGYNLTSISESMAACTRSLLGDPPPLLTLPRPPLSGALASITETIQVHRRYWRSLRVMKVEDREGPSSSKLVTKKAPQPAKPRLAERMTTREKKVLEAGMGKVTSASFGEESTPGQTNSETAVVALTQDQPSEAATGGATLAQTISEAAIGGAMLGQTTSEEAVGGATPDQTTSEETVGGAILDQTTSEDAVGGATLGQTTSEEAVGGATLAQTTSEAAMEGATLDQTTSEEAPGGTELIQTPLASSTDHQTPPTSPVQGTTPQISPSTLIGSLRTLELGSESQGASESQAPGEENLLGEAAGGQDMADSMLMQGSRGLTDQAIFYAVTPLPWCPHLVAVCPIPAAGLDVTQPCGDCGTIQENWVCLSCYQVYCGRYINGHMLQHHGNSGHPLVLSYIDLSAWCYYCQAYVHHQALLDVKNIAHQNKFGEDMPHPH
The data set can be described thus: Inhibition of full length human recombinant HDAC6 in human HD-MB03 cells assessed as increase in acetylation of alpha tubulin at 53 nM for 6 hrs by western blotting anlaysis. The class given is cell-based.

A short description of data set [6]: Cytotoxicity against primary normal human fibroblast cells assessed as inhibition of cell growth incubated for 72 hrs measured by spectrophotometer analysis. The class given is toxicity, cell-based.
In the next data set the test system is HD-MB03. The data set can be described thus: Antiproliferative activity against human HD-MB03 cells at 964 nM after 4 hrs by microplate reader method. The data set is classed as functional, cell-based.
In data set [7] the target is T1, Protein deacetylase HDAC6 (Homo sapiens). The data set can be described thus: Inhibition of full length human recombinant HDAC6 in human MV4-11 cells assessed as increase in acetylation of […] for 6 hrs by immunofluorescence imaging method. The data set is classed as cell-based. As to conditions: dose 0.1-2 µM, DDE = dose-dependent effect.
In another data set the target is Histone deacetylase 9 (Homo sapiens, UniProt Q9UKV0). The data set is described as follows: Inhibition of full length human recombinant HDAC9 expressed in Sf9 baculovirus system using FAM-labeled acetylated peptide as substrate by measuring fluorescence intensity by EMSA method.
Chain of Histone deacetylase 9 (Q9UKV0 whole entry): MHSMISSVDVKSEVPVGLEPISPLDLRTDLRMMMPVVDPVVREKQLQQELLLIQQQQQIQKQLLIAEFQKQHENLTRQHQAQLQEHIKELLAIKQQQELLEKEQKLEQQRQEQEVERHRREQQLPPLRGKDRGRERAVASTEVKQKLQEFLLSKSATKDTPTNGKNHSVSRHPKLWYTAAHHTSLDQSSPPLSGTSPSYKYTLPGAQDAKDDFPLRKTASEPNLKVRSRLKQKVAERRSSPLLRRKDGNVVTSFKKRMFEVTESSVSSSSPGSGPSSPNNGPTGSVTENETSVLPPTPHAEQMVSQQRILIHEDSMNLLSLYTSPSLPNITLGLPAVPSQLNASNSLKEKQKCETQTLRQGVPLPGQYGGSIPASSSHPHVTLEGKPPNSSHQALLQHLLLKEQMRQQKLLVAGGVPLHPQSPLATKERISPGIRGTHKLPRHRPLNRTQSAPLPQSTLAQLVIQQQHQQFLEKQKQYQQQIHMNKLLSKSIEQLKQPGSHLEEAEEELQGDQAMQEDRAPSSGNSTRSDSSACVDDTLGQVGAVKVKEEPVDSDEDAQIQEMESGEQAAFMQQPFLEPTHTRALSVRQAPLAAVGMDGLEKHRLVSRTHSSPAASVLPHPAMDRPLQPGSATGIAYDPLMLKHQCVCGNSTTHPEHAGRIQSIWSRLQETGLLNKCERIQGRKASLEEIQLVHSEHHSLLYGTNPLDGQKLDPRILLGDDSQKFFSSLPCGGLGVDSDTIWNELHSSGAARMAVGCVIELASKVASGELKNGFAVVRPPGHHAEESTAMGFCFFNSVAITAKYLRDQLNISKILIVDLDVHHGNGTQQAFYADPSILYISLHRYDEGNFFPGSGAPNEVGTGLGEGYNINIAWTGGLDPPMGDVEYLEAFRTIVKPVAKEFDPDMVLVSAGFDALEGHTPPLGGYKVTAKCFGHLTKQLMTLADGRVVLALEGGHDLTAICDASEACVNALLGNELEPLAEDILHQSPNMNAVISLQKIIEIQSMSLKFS
Data set [8] has as its system MV4-11. The data set is described as follows: Induction of apoptosis in human MV4-11 cells assessed as late apoptotic cells at 2 uM after 24 hrs by Annexin V/PI staining based flow cytometric analysis (Rvb=2%). The class given is functional.
Data set [9] has as its system MV4-11. The data set is described as follows: Induction of apoptosis in human MV4-11 cells assessed as early apoptotic cells at 2 uM after 24 hrs by Annexin V/PI staining based flow cytometric analysis (Rvb=2%). The class given is functional.
A short description of data set [10]: Cytotoxicity against human HD-MB03 cells assessed as inhibition of cell growth incubated for 72 hrs measured by spectrophotometer analysis. The class given is functional, cell-based. As to conditions: HD-MB03, 72 h.
The test system of data set [11] is MV4-11. The data set can be described thus: Induction of apoptosis in human MV4-11 cells assessed as early apoptotic cells at 0.25 uM after 24 hrs by Annexin V/PI staining based flow cytometric analysis (Rvb=2%). The class given is functional.
Data set [12] can be described thus: Cytotoxicity against human primary pooled fibroblasts cells assessed as inhibition of cell growth incubated for 72 hrs measured by spectrophotometer analysis. The data set is classed as toxicity, cell-based, Fibroblast.
Data set [13] in a line: Dissociation constant, pKa of compound. The data set is classed as physicochemical.
The nature of the next data set: in vitro. As to conditions: human, MRC9 cells.
Data set [14] is described as follows: Competitive inhibition of N-terminal His-SUMO tagged zebra fish recombinant HDAC6 catalytic domain 2 transfected with pET28b(+) vector in Escherichia coli BL21 (DE3) RILP cells incubated for 10 mins followed by addition of FITC-M344 measured af ter 10 mins by fluorescence polarization assay. Set-up: species or system Danio rerio.
Data set [15] deals with T1, Protein deacetylase HDAC6 (Homo sapiens). The data set is described as follows: Inhibition of full length human recombinant HDAC6 in human MV4-11 cells assessed as acetylation of histone H3 at 5 uM by Western blot analysis. The class given is cell-based. As to conditions: time 6.0 hrs.
The next data set addresses Histone deacetylase 1 (Homo sapiens, UniProt Q13547). The data set can be described thus: Inhibition of full length human recombinant HDAC1 expressed in Sf9 baculovirus system using FAM-labeled acetylated peptide as substrate by measuring fluorescence intensity by EMSA method.
The subject of data set [16] is MV4-11. The data set is described as follows: Induction of apoptosis in human MV4-11 cells assessed as late apoptotic cells at 0.75 uM after 24 hrs by Annexin V/PI staining based flow cytometric analysis (Rvb=2%). The class given is functional.
For data set [17], the system named is MV4-11. The data set can be described thus: Induction of apoptosis in human MV4-11 cells assessed as viable cells at 1 uM after 24 hrs by Annexin V/PI staining based flow cytometric analysis (Rvb=58.28%). As to conditions: read-out: Activity. The class given is functional.

Chain of Histone deacetylase 1 (Q13547 whole entry): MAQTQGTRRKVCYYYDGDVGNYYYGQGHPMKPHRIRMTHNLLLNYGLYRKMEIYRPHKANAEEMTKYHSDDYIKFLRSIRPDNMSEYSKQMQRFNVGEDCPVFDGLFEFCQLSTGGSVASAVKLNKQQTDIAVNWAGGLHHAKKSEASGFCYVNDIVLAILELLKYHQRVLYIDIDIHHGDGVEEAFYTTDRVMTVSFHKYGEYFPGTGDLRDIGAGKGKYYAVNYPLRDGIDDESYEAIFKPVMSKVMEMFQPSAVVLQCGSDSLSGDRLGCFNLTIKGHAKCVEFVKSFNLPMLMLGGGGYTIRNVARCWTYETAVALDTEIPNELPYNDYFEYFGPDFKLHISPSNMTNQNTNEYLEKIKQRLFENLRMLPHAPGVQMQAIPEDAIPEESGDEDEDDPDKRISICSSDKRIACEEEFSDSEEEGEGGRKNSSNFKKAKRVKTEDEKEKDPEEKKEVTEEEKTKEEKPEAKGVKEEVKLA

With `CC(C)N(Cc1ccc(C(=O)NO)cc1)S(=O)(=O)c1cc(F)c(F)c(F)c1F`, the IC50 at 72 h was 5.76 µM in data set [1], 12.4 µM in [6], 8.8 µM in data set [12] and over 50 µM in the data set “in vitro”. The Activity in the data set with MV4-11 [2] came to 3.32%; in the data set on MV4-11 [8], 23.4%; with MV4-11 [9], 3.59%; in the data set on MV4-11 [11], 3.6%; with MV4-11 [16] it was 7.81%. Also, the IC50 was 1.19 µM in the data set on MV4-11 [3]; over 5 µM at Histone deacetylase 9; 0.13 µM in data set [10]; 0.139 µM in data set [14]; over 5 µM on Histone deacetylase 1. In [4], this compound had a logP of 3.41. Also, the inhibition entry in data set [5] and in data set [15] was “Active” throughout. Besides, the outcome in the data set with HD-MB03 was Active. In data set [7], the inhibition result was “Dde”. In [13], this compound gave a pKa of 8.77. In addition, the viability at 1 µM in the data set on MV4-11 [17] amounted to 56.3%.
